Where two headings read alike, the source gives them in different places. Each block holds one molecule with its values, some of them ahead of it.
Columns and labels:
[1] = Stability in liver microsomes, human; conditions: for AUC: human
[2] = Stability in liver microsomes, rat
[3] = Stability in liver microsomes, dog
[4] = Stability in cryopreserved hepatocytes, human; conditions: for AUC: human
[5] = Stability in cryopreserved hepatocytes, rat; conditions: for AUC: rat
[6] = Stability in cryopreserved hepatocytes, dog; conditions: for AUC: dog
[7] = Stability in human subcutaneous skin homogenate; conditions: for AUC: human
[8] = rat
[9] = dog

Trep Concentration 0 min [1]: 0.048 µM
Trep Concentration 10 min [1]: 0.087 µM
Trep Concentration 20 min [1]: 0.092 µM
Trep Concentration 30 min [1]: 0.1 µM
Trep Concentration 60 min [1]: 0.16 µM
AUC [1]: 6.43 µmol·min/L
Trep Concentration 0 min [2]: 0.12 µM
Trep Concentration 10 min [2]: 0.24 µM
Trep Concentration 20 min [2]: 0.29 µM
Trep Concentration 30 min [2]: 0.38 µM
Trep Concentration 60 min [2]: 0.54 µM
Trep Concentration 0 min [3]: 0.019 µM
Trep Concentration 10 min [3]: 0.044 µM
Trep Concentration 20 min [3]: 0.087 µM
Trep Concentration 30 min [3]: 0.11 µM
Trep Concentration 60 min [3]: 0.2 µM
Trep Concentration (μM) 0 min [4]: 0 µM
Trep Concentration (μM) 15 min [4]: 0.1 µM
Trep Concentration (μM) 30 min [4]: 0.16 µM
Trep Concentration (μM) 60 min [4]: 0.246 µM
Trep Concentration (μM) 120 min [4]: 0.344 µM
AUC [4]: 26.49 µmol·min/L
Trep Concentration (μM) 0 min [5]: 0.0112 µM
Trep Concentration (μM) 15 min [5]: 0.441 µM
Trep Concentration (μM) 30 min [5]: 0.542 µM
Trep Concentration (μM) 60 min [5]: 0.594 µM
Trep Concentration (μM) 120 min [5]: 0.609 µM
AUC [5]: 63.89 µmol·min/L
Trep Concentration (μM) 0 min [6]: 0 µM
Trep Concentration (μM) 15 min [6]: 0.0459 µM
Trep Concentration (μM) 30 min [6]: 0.0824 µM
Trep Concentration (μM) 60 min [6]: 0.136 µM
Trep Concentration (μM) 120 min [6]: 0.198 µM
AUC [6]: 14.60 µmol·min/L
Trep Concentration 0 min [7]: 0 µM
Trep Concentration 30 min [7]: 0 µM
Trep Concentration 60 min [7]: 0.019 µM
Trep Concentration 120 min [7]: 0.03 µM
AUC [7]: 1.76 µmol·min/L
AUC [8]: 21.60 µmol·min/L
AUC [9]: 6.61 µmol·min/L
Compound: CCCCCC(CCC1C(O)CC2Cc3c(cccc3OCC(=O)O)CC21)OC(=O)CCC(=O)O (stereo not shown) [XX]

Trep Concentration 0 min [1]: 0.361 µM
Trep Concentration 10 min [1]: 0.297 µM
Trep Concentration 20 min [1]: 0.293 µM
Trep Concentration 30 min [1]: 0.273 µM
Trep Concentration 60 min [1]: 0.219 µM
AUC [1]: 16.45 µmol·min/L
Trep Concentration 0 min [2]: 0.322 µM
Trep Concentration 10 min [2]: 0.296 µM
Trep Concentration 20 min [2]: 0.314 µM
Trep Concentration 30 min [2]: 0.308 µM
Trep Concentration 60 min [2]: 0.29 µM
Trep Concentration 0 min [3]: 0.335 µM
Trep Concentration 10 min [3]: 0.312 µM
Trep Concentration 20 min [3]: 0.311 µM
Trep Concentration 30 min [3]: 0.308 µM
Trep Concentration 60 min [3]: 0.323 µM
Trep Concentration (μM) 0 min [4]: 0.297 µM
Trep Concentration (μM) 15 min [4]: 0.274 µM
Trep Concentration (μM) 30 min [4]: 0.298 µM
Trep Concentration (μM) 60 min [4]: 0.275 µM
Trep Concentration (μM) 120 min [4]: 0.217 µM
AUC [4]: 31.93 µmol·min/L
Trep Concentration (μM) 0 min [5]: 0.33 µM
Trep Concentration (μM) 15 min [5]: 0.309 µM
Trep Concentration (μM) 30 min [5]: 0.299 µM
Trep Concentration (μM) 60 min [5]: 0.307 µM
Trep Concentration (μM) 120 min [5]: 0.3 µM
AUC [5]: 36.65 µmol·min/L
Trep Concentration (μM) 0 min [6]: 0.296 µM
Trep Concentration (μM) 15 min [6]: 0.242 µM
Trep Concentration (μM) 30 min [6]: 0.197 µM
Trep Concentration (μM) 60 min [6]: 0.155 µM
Trep Concentration (μM) 120 min [6]: 0.137 µM
AUC [6]: 21.37 µmol·min/L
Trep Concentration 0 min [7]: 0 µM
Trep Concentration 30 min [7]: 0 µM
Trep Concentration 60 min [7]: 0 µM
Trep Concentration 120 min [7]: 0 µM
AUC [7]: 0.00 µmol·min/L
AUC [8]: 18.22 µmol·min/L
AUC [9]: 18.91 µmol·min/L
Compound: CCCCCC(CCC1C(O)CC2Cc3c(cccc3OCC(=O)O)CC21)OC(N)=O (stereo not shown) [XLII]
